Results on four compounds are retold here after article PMC9917184, “Synthesis and Biological Evaluation of Potential Oncoimmunomodulator Agents” (International Journal of Molecular Sciences, 2023).

In assay [1] the test system is c-Myc. Briefly: Immunofluorescence microscopy of c-Myc in MCF-7. The conditions noted are these: MCF-7, 24 h of treatment. The assay is classed as cell-based, human. The source says: We also observed the effect of triazole derivatives 3, 5 and 7 on both targets in MCF-7 by immunofluorescence microscopy (see Figure 2). We stained both targets with anti-PD-L1 conjugated to AlexaFluor®647 (red in Figure 2), as well as anti-c-Myc conjugated to fluorescein (green in Figure 2), to determine the amount of both targets. The nucleus was stained with Hoechst (blue in Figure 2).
We observed that in the DMSO control, c-Myc was located in the nucleus of the cell and the nucleus membrane nearby, and PD-L1 was preferentially positioned in the membrane or cytosol, favoring the contact between surrounding cells.
For immunofluorescence microscopy of the microtubule network, […] cells were plated on cover glass and incubated with the selected compounds. Cells were then fixed in 4% formaldehyde (in PBS pH 7.4) for 20 min at room temperature and permeabilized with PBS-Triton X-100 0.5% for 1 min at room temperature. Direct immunostaining was carried out for 1 h at room temperature with FITC Mouse monoclonal Anti-c-Myc (ab223913) and Alexa Fluor® 647 Rabbit monoclonal Anti-PD-L1 (ab215251). Then, cells were washed in PBS, and cover glasses were mounted with a drop of ProLong® antifade solution (Invitrogen). The cytoskeleton was imaged by a confocal laser scanning microscope (CLSM) Leica SP5 with a Leica inverted microscope, equipped with 20x objective. Each image was recorded with the CLSM’s spectral mode selecting specific domains of the emission spectrum. The FITC fluorophore was excited at 488 nm with an argon laser, and its fluorescence emission was collected between 496 nm and 535 nm.

Assay [2] concerns c-Myc. The assay is described as follows: Total c-Myc relative quantification by flow cytometry in cancer cell lines. The assay is classed as cell-based, human. (In general: A flow cytometer gives signals particle by particle.)
For assay [3], the target named is PD-L1 (Homo sapiens, UniProt Q9NZQ7). Briefly: Total PD-L1 relative quantification by flow cytometry in cancer cell lines. The assay is classed as cell-based. Also noted: Alexa Fluor® 647 Rabbit monoclonal Anti-PD-L1 (ab215251); endogenous in cells; host or cells: HT-29.
PD-L1, sequence (Q9NZQ7 19-290): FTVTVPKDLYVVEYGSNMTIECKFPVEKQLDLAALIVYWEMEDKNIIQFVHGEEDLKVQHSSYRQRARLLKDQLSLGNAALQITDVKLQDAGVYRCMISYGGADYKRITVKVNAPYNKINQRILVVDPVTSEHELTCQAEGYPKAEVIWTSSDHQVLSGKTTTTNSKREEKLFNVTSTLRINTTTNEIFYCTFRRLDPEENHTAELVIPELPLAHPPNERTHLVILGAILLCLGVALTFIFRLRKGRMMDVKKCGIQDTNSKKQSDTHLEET

Turning to `COc1ccc(C(OCCc2ccc(CCn3cc(-c4ccc(Br)cc4)nn3)cc2)(c2ccccc2)c2ccc(OC)cc2)cc1` [Compound 3, 1-(4-(2-(bis(4-methoxyphenyl)(phenyl)methoxy)ethyl)phenethyl)-4-(4-bromophenyl)-1H-1,2,3-triazole], the “c-Myc localisation (confocal images)” value in assay [1] is recorded as “preferentially in the nucleus of the cells”. The “% c-Myc” value is recorded as 109 ± 9% in assay [2] (HT-29, dose 10 µM); 100 ± 3% in assay [2] (HT-29, dose 25 µM); 88 ± 5% in assay [2] (HT-29, dose 50 µM); 56 ± 5% in assay [2] (MCF-7, dose 10 µM); 62 ± 5% in assay [2] (MCF-7, dose 25 µM); 75 ± 9% in assay [2] (MCF-7, dose 50 µM). The remaining activity at 10 µM in assay [3] (24 h, HT-29, dose 10 µM) was found to be 101 ± 2%; in assay [3] (MCF7, 24 h, MCF-7, dose 10 µM), 52 ± 2%. The remaining activity at 25 µM in assay [3] (24 h, HT-29, dose 25 µM) worked out at 111 ± 4%; in assay [3] (MCF7, 24 h, MCF-7, dose 25 µM) it was 58 ± 3%. Also, the remaining activity at 50 µM in assay [3] (24 h, HT-29, dose 50 µM) was 90 ± 3%; in assay [3] (MCF7, 24 h, MCF-7, dose 50 µM), 69 ± 4%.

`Cc1c(COc2ccc(CN3CCCCC3C(=O)O)cc2Br)cccc1-c1ccccc1` (stereo not shown) [BMS-8, reference compound]: the “c-Myc localisation (confocal images)” value in assay [1] is reported as “not altered”.

Take `COc1ccc(C(OCCc2ccc(CCn3cc(-c4ccccc4Br)nn3)cc2)(c2ccccc2)c2ccc(OC)cc2)cc1` [Compound 7, 1-(4-(2-(bis(4-methoxyphenyl)(phenyl)methoxy)ethyl)phenethyl)-4-(2-bromophenyl)-1H-1,2,3-triazole]: in assay [1], the “c-Myc localisation (confocal images)” value is recorded as “aggregated in the nucleus of the cells”.

With `COc1ccc(C(OCCc2ccc(CCn3cc(-c4cccc(Br)c4)nn3)cc2)(c2ccccc2)c2ccc(OC)cc2)cc1` [Compound 5, 1-(4-(2-(bis(4-methoxyphenyl)(phenyl)methoxy)ethyl)phenethyl)-4-(3-bromophenyl)-1H-1,2,3-triazole], in assay [1], the “c-Myc localisation (confocal images)” value was “aggregated around the nucleus membrane”.

By remaining activity is commonly meant the signal under treatment as a percentage of the control signal.
